# Source: EP0212310A2, “Use of probucol in the preparation of a medicament for the treatment of heart arrhythmia” (priority 1985, dated 1987)
# “And” between values parts separate entries of the source, which are not always exact repeats. Equal entries are not always repeated.
# What was measured:
# [1] = system: Patienten mit Hyperlipoproteinämie; assay: 12-lead standard ECG: QT time and heart rate in verum and placebo phases of a controlled study; type: in vivo
# Description: Je ein 12-Ableitungs-Standard-EKG wurde registriert. • 1. In der Placebophase • 2. In der Verumphase nach 12 Wochen • 3. In der Verumphase nach 24 Wochen • 4. In der Placebophase 42 Tage nach Absetzen von Probucol
# Für jede der Aufzeichnungen wurde jeweils die frequenzkorrigierte QT-Zeit ermittelt (Bazett-Formula).
# Unter Verwendung des Wilcoxon-Tests für verbundene Stichproben wurde geprüft, ob ein signifikanter Unterschied der QT-Dauer zwischen den Placebophasen und den Verumphasen besteht.
# [2] = system: Patienten mit Hyperlipoproteinämie; settings: in vivo
# Description: Bei 42 Patienten mit Hyperlipoproteinämie wurde im Rahmen einer kontrollierten Studie die Wirkung von Probucol gegen Placebo geprüft.
# [3] = system: Patienten mit Hyperlipoproteinämie; assay: 24-hour long-term ECG: arrhythmia frequency under placebo (control) and under verum; type: in vivo
# Description: Von allen 42 Patienten wurde mittels Oxfolg-Medilog II Registriergeräten ein 24-Stunden-Langzeit-EKG sowohl in der Verum- als auch in der Placebophase registriert.
# Die Bänder wurden ohne Kenntnis der Therapie unter Verwendung eines Reynolds Pathfinder-Analysesytems ausgewertet, dessen Sensitivität zur Identifikation von QRS-Komplexion bei 99 %, zur Erkennung ventrikulärer Extrasystolen bei 96 % lag. Neben den normalen und extrasystolischen QRS-Komplexen wurden auch die folgenden Arrhythmieformen quantitativ erfaßt: supraventrikuläre Extrasystolen, supraventrikuläre Tachykardien, ventrikuläre Extrasystolen, R/T-Phänomene,gepaarte ventrikuläre Extrasystolen, mehrere hintereinander auftretende ventrikuläre Extrasystolen, Kammertachykardien, ventrikuläre Bigemini und Asystolien. Darüber hinaus wurden erfaßt Phasen intermittierenden Vorhofflimmerns, intermittierende Schenkelblockbilder und das Herzfrequenzverhalten.
# Die stündliche Häufigkeit der verschiedenen Rhythmusstö-rungen wurden erfaßt und auf einem Computerausdruck dokumentiert. Die Analyse wurde korrigiert, indem der Vorgang jedes Mal unterbrochen wurde, wenn eine ventrikuläre Extrasystole erkannt wurde. Diese wurde dann jeweils 1 : 1 auf EKG-Papier ausgeschrieben und durch den Untersucher verifiziert. Im Falle der falsch positiven Erkennung eines Ereignisses wurde der Computerausdruck entsprechend korrigiert. Dadurch wurde die positive Korrektheit der Analyse auf 100 % gesteigert. In Tabelle 3 sind die korri gierten Ergebnisse wiedergegeben.
# Bei der relativen Seltenheit komplexer tachykarder ventrikulärer Rhythmusstörungen im untersuchten Kollektiv wurde eine Bewertung des Therapieeffektes lediglich für die ventrikulären Extrasystolen vorgenommen. Hierbei ließ sich die Frage nach einem möglichen paradoxen arrhythmogenen Effekt naturgemäß für alle Patienten beantworten, die Frage nach einem antiarrhythmischen Effekt dagegen nur bei den Patienten, deren spontane Arrhythmiehäufigkeit in der Placebophase eine gewisse Häufigkeit überschritt. Hierfür wurde willkürlich eine Grenze von wenigstens einer Extrasystole/Stunde, entsprechend 24 in 24 Stunden, gefordert.
# Als Hinweis auf einen möglichen paradoxen arrhythmogenen Effekt des Medikaments werteten wir eine Zunahme der Extrasystoliehäufigkeit gegenüber Placebo um wenigstens 150 %. Als Hinweis auf einen möglichen antiarrhythmischen Effekt werteten wir eine Abnahme der spontanen Extrasystoliehäufigkeit um wenigstens 60 %, als Hinweise auf einen wahrscheinlichen antiarrhythmischen Effekt eine Abnahme der Extrasystoliehäufigkeit um wenigstens 75 %.
# [4] = number out of 17 patients with more than 1 VES/h under placebo
smiles,measurement,setting,value
CC(C)(Sc1cc(C(C)(C)C)c(O)c(C(C)(C)C)c1)Sc1cc(C(C)(C)C)c(O)c(C(C)(C)C)c1 [Probucol],Verlängerung der frequenzkontrollierten QT-Zeit,"[1]; 1000 mg daily, versus placebo",ca. 5%
same,Verum-2 F Mittelw.,"[1]; mean, N 41, phase Verum-2","64,32"
same,Verum-2 QT Mittelw.,"[1]; mean, N 41, phase Verum-2","0,40"
same,Verum-4 F Mittelw.,"[1]; mean, N 41, phase Verum-4","66,49"
same,Verum-4 QT Mittelw.,"[1]; mean, N 41, phase Verum-4","0,38"
same,frequenzkorrigierte QT-Zeit unter Probucol im Vergleich zu den Placebophasen,"[1]; therapy phase 1 or 2 versus placebo phase 1 or 2, p = 0.002, Wilcoxon test",signifikant verlängert
same,Nebenwirkungen,[2],"gelegentlich Durchfall, Bauchschmerzen und Kopfschmerzen"
same,Patienten mit Abnahme der Extrasystolie um wenigstens 60 %,[3]; further patients out of the 8 with more than 15 VES/h spontaneous frequency,Drei
same,komplexe tachykarde ventrikuläre Rhythmusstörungen unter Therapie,[3]; in the 3 patients with paradoxical arrhythmogenic effect,Bei keinem der 3 Patienten
same,Patienten mit signifikanter Zunahme der spontanen Arrhythmiehäufigkeit unter Probucol (paradoxe arrhythmogene Wirkung),[3]; in vivo,3
same,ventrikulärer Bigeminus,[3]; in vivo,"bei einem Patienten unter Verum, jedoch nicht unter Placebo"
same,Abnahme der Extrasystoliefrequenz,[3]; individual values of the 8 patients with more than 15 VES/h spontaneous frequency,60% and 66% and 69% and 89% and 90% and 94% and 95% and 100%
same,Patienten mit statistisch signifikanter Abnahme der Extrasystoliefrequenz um mehr als 75 %,[3]; number out of 8 patients with more than 15 VES/h spontaneous frequency,5
same,Patienten mit Reduktion der Extrasystolen unter Therapie über 75 %,[3]; [4],7
same,Patienten mit Reduktion der Extrasystolen zwischen 60 und 75 %,[3]; [4],3
same,"Patienten mit Reduktion der spontanen Extrasystoliefrequenz, die auf eine antiarrhythmische Wirkung hinweist","[3]; share of the 17 patients with more than 1 VES/h under placebo, reduction of at least 60 %",59%
